“Also recorded” adds a separate entry of the source.
Columns and labels:
[1] = test system: neovascularization secondary to ROP; conditions: intravitreal injection; cited from earlier work
[2] = test system: Neovascularization-mediated by VEGF+FGF2; assay: Chick chorioallantoic membrane (CAM) model of angiogenesis; format: in vivo; conditions: VEGF and FGF2 at 1 μg/ml each, SNACH 2 ug/CAM, 3-day incubation
Procedure: The effect of SNACH on Neovascularization-mediated by VEGF+FGF2 was examined in the CAM model. Briefly, ten-day old chick embryos were purchased from Spafas, Inc. (Preston, Conn.) and incubated at 37° C. with 55% relative humidity. A hypodermic needle was used to make a small hole in the shell at the air sac and a second hole will be made on the broadside of the egg, directly over an avascular portion of the embryonic membrane that will be identified by candling. A false air sac was created beneath the second hole by the application of negative pressure at the first hole, causing the CAM to separate from the shell. A window, approximately 1.0 cm^2, was cut in the shell over the dropped CAM with a small crafts grinding wheel (Dremel, Division of Emerson Electric Co., Racine, Wis.), allowing direct access to the underlying CAM. […] Digital images of CAM sections exposed to filters were collected, using a 3-CCD color video camera system (Toshiba America, New York, N.Y.), and analyzed with Image-Pro software (Media Cybernetics, Silver Spring, Md.). The numbers of vessel branch points contained in a circular region equal to the area of each filter disk were counted. One image were counted in each CAM preparation, and findings from 6-8 CAM preparations/group were analyzed for each treatment condition.

[3] = test system: retinal neovascularization; assay: Oxygen-induced retinopathy mouse model (retinopathy of prematurity), retinal neovascularization; format: in vivo
Procedure: SNACH and SNACH Nanoparticles (1 mg/kg) in PBS at pH 7-7.5, Control: PBS at 1 mg/ml on postnatal day 12 and 15, Mode of Administration: Intraperitoneal or eye drops.
An animal model of a mice model was used. The mice model used was the Oxygen-induced retinopathy mouse model as described by Smith L E, W. E., McLellan A, Kostyk S K, D'Amato R, Sullivan R, D'Amore P A. (1994), “Oxygen-induced retinopathy in the mouse”, Invest Ophthalmol Vis Sci 35(1): 101-111.
The neonatal mice were exposed to hyperoxic conditions for 5 days, beginning at age p7 for the pups and continuing through p12 when they are returned to normal oxygen atmosphere (8-10 animals/group). Treatment group SNACH at 1 mg/kg administered IP or eye drops at two separate doses one at P12 and the other at P15. Day 17 animals were scarified and eyes removed for retinal Neovascularization evaluation. The removed eyes were stained with H&E stain. Additionally in upcoming study 3 additional animals per group were used for ocular tissue levels of SNACH after SNACH administration by LC/MS/MS.
Induction of oxygen-induced retinopathy in mouse model, in accordance with embodiments of the present invention. […]

[4] = test system: choroidal neovascular membranes; conditions: wet AMD, Phase 3 clinical trials; cited from earlier work

bevacizumab
regression of neovascularization secondary to ROP [1]: regression of neovascularization

sulfated non-anticoagulant heparin [SNACH]
inhibition of angiogenesis induced by VEGF and FGF2 [2]: maximal inhibition of angiogenesis; also recorded: potent angiogenesis inhibitors | neovascular regression in ROP mice model ([3]; ROP mice): causes neovascular regression | inhibition of retinal neovascularization (mean total area of neovascularization) ([3]; neonatal mouse, 1.0 mg/kg, IP on day 12 and 15): 60-70%

B1: ranibizumab (antibody, chains of the INN, looked up, V domains shown)
VH: EVQLVESGGGLVQPGGSLRLSCAASGYDFTHYGMNWVRQAPGKGLEWVGWINTYTGEPTYAADFKRRFTFSLDTSKSTAYLQMNSLRAEDTAVYYCAKYPYYYGTSHWYFDVWGQGTLVTVSS
VL: DIQLTQSPSSLSASVGDRVTITCSASQDISNYLNWYQQKPGKAPKVLIYFTSSLHSGVPSRFSGSGSGTDFTLTISSLQPEDFATYYCQQYSTVPWTFGQGTKVEIK
modifications: Fab
notes: anti-VEGF pharmacotherapy (Lucentis, Genentech)
regression of choroidal neovascular membranes [4]: regression of choroidal neovascular membranes

Reference: patent publication US9655862B2, “Ocular nanoformulation and method of use in angiogenesis-mediated disorders” (priority 2013, dated 2017)
